Experimental findings from patent publication US20260001928A1 (CORTERIA PHARMACEUTICALS, priority 2022, published 2026) are described below.

One series addresses T1, human CRF2a receptor (Homo sapiens, UniProt Q13324).
T1 construct: expressed in transfected cells; host or cells: TeloHEAC cells
T1 sequence (Q13324 1-411): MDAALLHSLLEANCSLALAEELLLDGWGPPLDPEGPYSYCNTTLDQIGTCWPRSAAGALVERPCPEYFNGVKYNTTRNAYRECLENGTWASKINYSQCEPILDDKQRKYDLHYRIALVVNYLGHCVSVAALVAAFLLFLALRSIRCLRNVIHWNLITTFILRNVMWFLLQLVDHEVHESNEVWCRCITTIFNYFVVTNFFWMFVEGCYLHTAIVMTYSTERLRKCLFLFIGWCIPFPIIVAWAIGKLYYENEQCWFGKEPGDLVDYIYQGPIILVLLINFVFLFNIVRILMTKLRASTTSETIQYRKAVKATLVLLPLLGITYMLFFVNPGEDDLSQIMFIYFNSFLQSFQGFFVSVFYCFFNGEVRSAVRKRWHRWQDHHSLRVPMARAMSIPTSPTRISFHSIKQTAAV
Kind of series: Activity at human CRF2a receptor, cAMP functional assay in TeloHEAC cells. To be noted: TeloHEAC cells stably expressing human CRF2a receptor, relative to urocortin 2 (100 nM = 100%). The class given is cell-based. The procedure, abridged: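 cAMP accumulation was measured by HTRF 665/620 nm ratio after 30 min at 37° C compound exposure (16 twofold dilutions) of CRF2a-expressing TeloHEAC cells, 10000/well, in HEPES-buffered HBSS plus IBMX. Activity was normalised to urocortin 2 at 100 nM (100%), and EC50 was the concentration giving half-maximal activation.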

The nature of series [1]: In vitro plasma stability, human plasma. To be noted: Human PLM, 37° C. Further details: dose or concentration left out as unconfirmed. The class given is in vitro ADME.
Series [2] is described as follows: In vitro plasma stability, rat plasma. To be noted: male, Sprague Dawley, plasma; Rat PLM, 37° C. Further details: remaining at 2 h: dose or concentration left out as unconfirmed. The class given is in vitro ADME.
Series [3] in a line: Chemical stability in buffer (pH 7.4 / pH 4.5), % purity loss. The class given is physicochemical. To be noted: 40° C. vs 5° C., 14 or 28 days; for Buffer stability pH 7.4 % purity loss: 100 mM phosphate buffer pH 7.4. In outline: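 LC-UV gave % loss after 14 or 28 days of storage at 5 °C or 40 °C. Samples were diluted supernatants from compound incubated 1 h at room temperature at 10 mg/mL target, in 100 mM acetate pH 4.5 or 100 mM phosphate pH 7.4.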

Series [4] can be described thus: Pharmacokinetics in male Sprague Dawley rats after subcutaneous administration. To be noted: plasma, rat, SC, 0.1 mg/kg. The format is in vivo.
Another series deals with Sprague Dawley rats. Kind of series: Effect on systolic blood pressure, telemetry in Sprague Dawley rats. The class given is in vivo, rat. To be noted: 0.1 mg/kg SC; for Systolic blood pressure (Mean) % change from baseline, 8 h / Systolic blood pressure (Mean) % change from baseline, 12 h / Systolic blood pressure (Mean) % change from baseline, 24 h: n=2; for Duration of action: last time point with an effect on BP still observed. The procedure, abridged:
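Values are % change from a 1 h pre-dose baseline in systolic pressure, tracked by telemetry for up to 48 hours after a single 0.1 mg/kg subcutaneous dose. Rats (Sprague Dawley, n=2 per peptide) carried aortic catheters and recovered at least 10 days post-surgery; duration of action marks the last time point still showing an effect.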

Series [5] in a line: Pharmacokinetics in male Sprague Dawley rats after subcutaneous administration. The class given is in vivo. To be noted: plasma, rat.

pEC50: −log10 of the molar value. *1 amine or outer side, *2 acyl side, *3 side chain or, on linkers, in order; H or OH if unused. Where a SMILES comes first, the peptide text is derived from it. Side-chain parts run from the residue outwards. [ ]: non-standard residue; d: D form. The star is where a group is joined. C20 diacid = O=C(O)CCCCCCCCCCCCCCCCCCC(=O)*; C18 diacid = O=C(O)CCCCCCCCCCCCCCCCC(=O)*; γGlu = O=C(O)[C@H](CCC(=O)[*:2])N[*:1]; NMeI = CC[C@H](C)[C@H](NC)C(=O)O; αMeL = CC(C)C[C@](C)(N)C(=O)O; AEEA = NCCOCCOCC(=O)O; Aib = CC(C)(N)C(=O)O Where only a bound is given, the exact number is not on record here.

`CC[C@H](C)[C@H](NC(C)=O)C(=O)N[C@H](C(=O)N[C@@H](CC(C)C)C(=O)N[C@@H](CO)C(=O)N[C@@H](CC(C)C)C(=O)N[C@@H](CC(=O)O)C(=O)N[C@@H](C(=O)N1CCC[C@H]1C(=O)N[C@H](C(=O)N[C@@H](CCCCN)C(=O)N[C@@](C)(CC(C)C)C(=O)N[C@@H](CCCCNC(=O)COCCOCCNC(=O)COCCOCCNC(=O)CC[C@H](NC(=O)CCCCCCCCCCCCCCCCC(=O)O)C(=O)O)C(=O)N[C@@H](CCCCN)C(=O)N[C@H](C(=O)N[C@@H](CC(C)C)C(=O)N[C@@H](CC(C)C)C(=O)N[C@@H](CCC(=O)O)C(=O)N[C@@H](CCC(N)=O)C(=O)N[C@@H](CCC(=O)O)C(=O)N[C@@H](CCCCN)C(=O)N[C@@H](CCC(N)=O)C(=O)N[C@@H](CCCCN)C(=O)N[C@@H](CCCCN)C(=O)N[C@@H](CCC(N)=O)C(=O)N[C@@H](CCCNC(=N)N)C(=O)N[C@@H](CCC(=O)O)C(=O)N[C@@H](CCC(N)=O)C(=O)N[C@@H](C)C(=O)N[C@@H](CCC(=O)O)C(=O)N[C@H](C(=O)N[C@@H](CC(N)=O)C(=O)NC(C)(C)C(=O)N[C@@H](CCC(N)=O)C(=O)N[C@H](C(=O)N[C@@H](CC(C)C)C(=O)N[C@@H](C)C(=O)N[C@@H](CCC(N)=O)C(=O)N[C@H](C(N)=O)C(C)C)[C@@H](C)CC)[C@@H](C)O)[C@@H](C)CC)[C@@H](C)CC)C(C)C)C(C)C` [compound 110] (Ac-IVLSLD[dV]PIK[αMeL]K([AEEA-AEEA-γGlu-C18 diacid])KILLEQEKQKKQREQAETN[Aib]QILAQV-NH2): the pEC50 (usually the EC50 on a negative log10 scale, so that one unit is a factor of ten) at human CRF2a receptor is 9.52. For the same compound, the share remaining (commonly the share of the starting amount still present when the sample was taken) at 2 h in series [1] was determined as 97%. Moreover, the fraction remaining at 2 h in series [2] is 95%. Further, in series [3], the “Buffer stability pH 7.4 % purity loss” value is 0/nd ^ %. In series [4], the AUC(0-t) – broadly, exposure summed from dosing to a finite time, without extrapolation to infinity – is 4430 ng·h/mL and the Cmax (as a rule, the maximum level reached in the sampled fluid or tissue) was 291 ng/mL. Further, in the series on Sprague Dawley rats, the “Systolic blood pressure (Mean) % change from baseline, 8 h” value is recorded as −19%; the “Systolic blood pressure (Mean) % change from baseline, 12 h” value is listed as −10%; the “Systolic blood pressure (Mean) % change from baseline, 24 h” value is listed as −6%; the Duration of action is given as 20 h. In series [5] (IV, 0.05 mg/kg), the area under the curve AUC(0-t) amounted to 3880 ng·h/mL and the half-life (commonly the time needed for the level to fall by half in the phase considered) was 4.8 h. In series [5] (SC, 0.1 mg/kg), the Tmax – broadly, the time at which the peak concentration occurs – is 5 h and the half-life was 5 h.
On human CRF2a receptor, `CC[C@H](C)[C@H](NC(C)=O)C(=O)N[C@H](C(=O)N[C@@H](CC(C)C)C(=O)N[C@@H](CO)C(=O)N[C@@H](CC(C)C)C(=O)N[C@@H](CC(=O)O)C(=O)N[C@@H](C(=O)N1CCC[C@H]1C(=O)N[C@H](C(=O)N[C@@H](CCCCN)C(=O)N[C@@H](CC(C)C)C(=O)N[C@@H](CCCCNC(=O)CC[C@H](NC(=O)CCCCCCCCCCCCCCCCCCC(=O)O)C(=O)O)C(=O)N[C@@H](CCCCN)C(=O)N[C@H](C(=O)N[C@@H](CC(C)C)C(=O)N[C@@H](CC(C)C)C(=O)N[C@@H](CCC(=O)O)C(=O)N[C@@H](CCC(N)=O)C(=O)N[C@@H](CCC(=O)O)C(=O)N[C@@H](CCCCN)C(=O)N[C@@H](CCC(N)=O)C(=O)N[C@@H](CCCCN)C(=O)N[C@@H](CCCCN)C(=O)N[C@@H](CCC(N)=O)C(=O)N[C@@H](CCCNC(=N)N)C(=O)N[C@@H](CCC(=O)O)C(=O)N[C@@H](CCC(N)=O)C(=O)N[C@@H](C)C(=O)N[C@@H](CCC(=O)O)C(=O)N[C@H](C(=O)N[C@@H](CC(N)=O)C(=O)NC(C)(C)C(=O)N[C@@H](CCC(N)=O)C(=O)N[C@H](C(=O)N[C@@H](CC(C)C)C(=O)N[C@@H](C)C(=O)N[C@@H](CCC(N)=O)C(=O)N[C@H](C(N)=O)C(C)C)[C@@H](C)CC)[C@@H](C)O)[C@@H](C)CC)[C@@H](C)CC)C(C)C)C(C)C` [compound 206] (Ac-IVLSLD[dV]PIKLK([γGlu-C20 diacid])KILLEQEKQKKQREQAETN[Aib]QILAQV-NH2) had a pEC50 of 9.96. The “Buffer stability pH 4.5 % purity loss” value in series [3] (100 mM acetate buffer pH 4.5) is given as 0.0/0.0 ^ %. Besides, in series [3], the “Buffer stability pH 7.4 % purity loss” value is listed as 0.0/0.0 ^ %. Further, in series [4], the AUC(0-t) was 5770 ng·h/mL and the peak level (Cmax) was 197 ng/mL. Moreover, in the series with Sprague Dawley rats, the “Systolic blood pressure (Mean) % change from baseline, 8 h” value is −12%; the “Systolic blood pressure (Mean) % change from baseline, 12 h” value is −16%; the “Systolic blood pressure (Mean) % change from baseline, 24 h” value was −13%; the Duration of action is on record as greater than 24 h. In addition, in series [5] (IV, 0.05 mg/kg), the AUC(0-t) came to 8100 ng·h/mL and the half-life is 8 h. For the same compound, in series [5] (SC, 0.1 mg/kg), the Tmax is 8 h and the half-life is 8 h.
Regarding `CC[C@H](C)[C@H](NC)C(=O)N[C@H](C(=O)N[C@@H](CC(C)C)C(=O)N[C@@H](CO)C(=O)N[C@@H](CC(C)C)C(=O)N[C@@H](CC(=O)O)C(=O)N[C@@H](C(=O)N1CCC[C@H]1C(=O)N[C@H](C(=O)N[C@@H](CCCCN)C(=O)N[C@@H](CC(C)C)C(=O)N[C@@H](CCCCNC(=O)CC[C@H](NC(=O)CCCCCCCCCCCCCCCCCCC(=O)O)C(=O)O)C(=O)N[C@@H](CCCCN)C(=O)N[C@H](C(=O)N[C@@H](CC(C)C)C(=O)N[C@@H](CC(C)C)C(=O)N[C@@H](CCC(=O)O)C(=O)N[C@@H](CCC(N)=O)C(=O)N[C@@H](CCC(=O)O)C(=O)N[C@@H](CCCCN)C(=O)N[C@@H](CCC(N)=O)C(=O)N[C@@H](CCCCN)C(=O)NC(C)(C)C(=O)N[C@@H](CCC(N)=O)C(=O)N[C@@H](CCCNC(=N)N)C(=O)N[C@@H](CCC(=O)O)C(=O)N[C@@H](CCC(N)=O)C(=O)N[C@@H](C)C(=O)N[C@@H](CCC(=O)O)C(=O)N[C@H](C(=O)N[C@@H](CC(N)=O)C(=O)NC(C)(C)C(=O)N[C@@H](CCC(N)=O)C(=O)N[C@H](C(=O)N[C@@H](CC(C)C)C(=O)N[C@@H](C)C(=O)N[C@@H](CCC(N)=O)C(=O)N[C@H](C(N)=O)C(C)C)[C@@H](C)CC)[C@@H](C)O)[C@@H](C)CC)[C@@H](C)CC)C(C)C)C(C)C` [compound 215] (H-[NMeI]VLSLD[dV]PIKLK([γGlu-C20 diacid])KILLEQEKQK[Aib]QREQAETN[Aib]QILAQV-NH2), on human CRF2a receptor, the pEC50 was 9.92. The “Buffer stability pH 7.4 % purity loss” value in series [3] is 0.0/Not Tested %. In series [4], the AUC(0-t) stood at 9410 ng·h/mL and the Cmax turned out to be 325 ng/mL. For the same compound, in the series with Sprague Dawley rats, the “Systolic blood pressure (Mean) % change from baseline, 8 h” value is reported as −12%; the “Systolic blood pressure (Mean) % change from baseline, 12 h” value was −14%; the “Systolic blood pressure (Mean) % change from baseline, 24 h” value was −16%; the Duration of action is greater than 24 h. In series [5] (IV, 0.05 mg/kg), this compound showed an AUC(0-t) of 7320 ng·h/mL and a half-life of 8 h. Moreover, in series [5] (SC, 0.1 mg/kg), the time to peak (Tmax) amounted to 7 h and the half-life is 10 h.
